Source: patent US20260250257A1, “ANTIBACTERIAL AND SYNERGISTIC ACTIVE COMPOUND AND USE THEREOF” (EAST CHINA UNIVERSITY OF SCIENCE AND TECHNOLOGY, priority 2023, published 2026)

Each compound was assayed on ATCC9027 strain (Pseudomonas aeruginosa) (assay: Checkerboard antibacterial synergistic activity test with polymyxin E (FIC)). Conditions: combined with polymyxin E.
Format: cell-based
Parameters: key: FIC≤0.5 synergy; 0.5–1 additive; 1–2 indifferent; ≥2 antagonism
In short: (§1)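 Broth checkerboard synergy with colistin; listed dilutions are working solutions, not final well levels. Overnight incubation, 16 h at 37° C.; FIC ≤0.5 denotes synergy, ≥2 antagonism.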

SMILES | Synergistic activity (FIC value) ATCC9027
Cc1ccccc1Oc1ccccc1-c1csc(N=C(N)N)n1 [Compound I-81] | 0.06
Cc1oc(N=C(N)N)nc1-c1cccc2ccc(Cl)cc12 [Compound I-63] | 0.63
COc1ccc(-c2csc(N=C(N)N)n2)cc1 [Compound I-6] | 1.25
Cc1ccccc1Oc1ccccc1-c1nc(N=C2NCCCN2)oc1Cl [Compound I-142] | 0.06
NC(N)=Nc1nc(-c2ccc3c(c2)COc2c-3ccc3c2C(=O)CCC3)cs1 [Compound I-119] | 1.25
NC(N)=Nc1nc(-c2cc(C(F)(F)F)c(O)c(C(F)(F)F)c2)co1 [Compound I-45] | 1.25
O=C(Nc1ccccc1)Nc1cccc(-c2nc(N=C3NCCCN3)sc2Br)c1 [Compound I-198] | 1.25
CCOC(=O)c1ccc(-c2c[nH]c(N=C(N)N)n2)cc1 [Compound I-25] | 0.53

Each compound was assayed on ATCC19606 strain (Acinetobacter baumannii) in the same assay as above. Conditions: combined with polymyxin E.
Format: cell-based
Parameters: key: FIC≤0.5 synergy; 0.5–1 additive; 1–2 indifferent; ≥2 antagonism
In short: as §1

SMILES | Synergistic activity (FIC value) ATCC19606
Cc1ccccc1Oc1ccccc1-c1csc(N=C(N)N)n1 [Compound I-81] | 0.31
Cc1oc(N=C(N)N)nc1-c1cccc2ccc(Cl)cc12 [Compound I-63] | 0.75
COc1ccc(-c2csc(N=C(N)N)n2)cc1 [Compound I-6] | 0.75
Cc1ccccc1Oc1ccccc1-c1nc(N=C2NCCCN2)oc1Cl [Compound I-142] | 0.31
NC(N)=Nc1nc(-c2ccc3c(c2)COc2c-3ccc3c2C(=O)CCC3)cs1 [Compound I-119] | 1.25
NC(N)=Nc1nc(-c2cc(C(F)(F)F)c(O)c(C(F)(F)F)c2)co1 [Compound I-45] | 0.13
O=C(Nc1ccccc1)Nc1cccc(-c2nc(N=C3NCCCN3)sc2Br)c1 [Compound I-198] | 0.75
CCOC(=O)c1ccc(-c2c[nH]c(N=C(N)N)n2)cc1 [Compound I-25] | 0.13

These compounds were tested on ATCC25922 strain (Escherichia coli) in the same assay as above. Conditions: combined with polymyxin E.
Format: cell-based
Parameters: key: FIC≤0.5 synergy; 0.5–1 additive; 1–2 indifferent; ≥2 antagonism
In short: as §1

SMILES | Synergistic activity (FIC value) ATCC25922
Cc1ccccc1Oc1ccccc1-c1csc(N=C(N)N)n1 [Compound I-81] | 0.14
Cc1oc(N=C(N)N)nc1-c1cccc2ccc(Cl)cc12 [Compound I-63] | 0.5
COc1ccc(-c2csc(N=C(N)N)n2)cc1 [Compound I-6] | 0.5
Cc1ccccc1Oc1ccccc1-c1nc(N=C2NCCCN2)oc1Cl [Compound I-142] | 0.14
NC(N)=Nc1nc(-c2ccc3c(c2)COc2c-3ccc3c2C(=O)CCC3)cs1 [Compound I-119] | 1.25
NC(N)=Nc1nc(-c2cc(C(F)(F)F)c(O)c(C(F)(F)F)c2)co1 [Compound I-45] | 0.52
O=C(Nc1ccccc1)Nc1cccc(-c2nc(N=C3NCCCN3)sc2Br)c1 [Compound I-198] | 0.5
CCOC(=O)c1ccc(-c2c[nH]c(N=C(N)N)n2)cc1 [Compound I-25] | 0.38

Each compound was assayed on ATCC13883 strain (Klebsiella pneumoniae) in the same assay as above. Conditions: combined with polymyxin E.
Format: cell-based
Parameters: key: FIC≤0.5 synergy; 0.5–1 additive; 1–2 indifferent; ≥2 antagonism
In short: as §1

SMILES | Synergistic activity (FIC value) ATCC13883
Cc1ccccc1Oc1ccccc1-c1csc(N=C(N)N)n1 [Compound I-81] | 0.09
Cc1oc(N=C(N)N)nc1-c1cccc2ccc(Cl)cc12 [Compound I-63] | 0.38
COc1ccc(-c2csc(N=C(N)N)n2)cc1 [Compound I-6] | 1.25
Cc1ccccc1Oc1ccccc1-c1nc(N=C2NCCCN2)oc1Cl [Compound I-142] | 0.09
NC(N)=Nc1nc(-c2ccc3c(c2)COc2c-3ccc3c2C(=O)CCC3)cs1 [Compound I-119] | 0.19
NC(N)=Nc1nc(-c2cc(C(F)(F)F)c(O)c(C(F)(F)F)c2)co1 [Compound I-45] | 0.19
O=C(Nc1ccccc1)Nc1cccc(-c2nc(N=C3NCCCN3)sc2Br)c1 [Compound I-198] | 1.25
CCOC(=O)c1ccc(-c2c[nH]c(N=C(N)N)n2)cc1 [Compound I-25] | 0.31

The compounds below were run on ATCC9027 strain (Pseudomonas aeruginosa) (assay: Broth microdilution, antibacterial activity of the compound used alone). Conditions: not given.
Format: cell-based
Text: (§2) The broth microdilution method was used to test the antibacterial effects of the compounds of the present invention against various Gram-negative bacterial strains when used alone.

SMILES | Antibacterial activity of the compound of Formula I, ATCC9027
Cc1ccccc1Oc1ccccc1-c1csc(N=C(N)N)n1 [Compound I-81] | 256 µg/mL
Cc1oc(N=C(N)N)nc1-c1cccc2ccc(Cl)cc12 [Compound I-63] | 256 µg/mL
COc1ccc(-c2csc(N=C(N)N)n2)cc1 [Compound I-6] | 256 µg/mL
Cc1ccccc1Oc1ccccc1-c1nc(N=C2NCCCN2)oc1Cl [Compound I-142] | 256 µg/mL
NC(N)=Nc1nc(-c2ccc3c(c2)COc2c-3ccc3c2C(=O)CCC3)cs1 [Compound I-119] | 256 µg/mL
NC(N)=Nc1nc(-c2cc(C(F)(F)F)c(O)c(C(F)(F)F)c2)co1 [Compound I-45] | 256 µg/mL
O=C(Nc1ccccc1)Nc1cccc(-c2nc(N=C3NCCCN3)sc2Br)c1 [Compound I-198] | 64 µg/mL
CCOC(=O)c1ccc(-c2c[nH]c(N=C(N)N)n2)cc1 [Compound I-25] | 256 µg/mL

Each compound was assayed on ATCC19606 strain (Acinetobacter baumannii) in the same assay as above. Conditions: not given.
Format: cell-based
Text: as §2

SMILES | Antibacterial activity of the compound of Formula I, ATCC19606
Cc1ccccc1Oc1ccccc1-c1csc(N=C(N)N)n1 [Compound I-81] | 256 µg/mL
Cc1oc(N=C(N)N)nc1-c1cccc2ccc(Cl)cc12 [Compound I-63] | 256 µg/mL
COc1ccc(-c2csc(N=C(N)N)n2)cc1 [Compound I-6] | 256 µg/mL
Cc1ccccc1Oc1ccccc1-c1nc(N=C2NCCCN2)oc1Cl [Compound I-142] | 256 µg/mL
NC(N)=Nc1nc(-c2ccc3c(c2)COc2c-3ccc3c2C(=O)CCC3)cs1 [Compound I-119] | 256 µg/mL
NC(N)=Nc1nc(-c2cc(C(F)(F)F)c(O)c(C(F)(F)F)c2)co1 [Compound I-45] | 256 µg/mL
O=C(Nc1ccccc1)Nc1cccc(-c2nc(N=C3NCCCN3)sc2Br)c1 [Compound I-198] | 256 µg/mL
CCOC(=O)c1ccc(-c2c[nH]c(N=C(N)N)n2)cc1 [Compound I-25] | 256 µg/mL

Each compound was assayed on ATCC25922 strain (Escherichia coli) in the same assay as above. Conditions: not given.
Format: cell-based
Text: as §2

SMILES | Antibacterial activity of the compound of Formula I, ATCC25922
Cc1ccccc1Oc1ccccc1-c1csc(N=C(N)N)n1 [Compound I-81] | 256 µg/mL
Cc1oc(N=C(N)N)nc1-c1cccc2ccc(Cl)cc12 [Compound I-63] | 256 µg/mL
COc1ccc(-c2csc(N=C(N)N)n2)cc1 [Compound I-6] | 256 µg/mL
Cc1ccccc1Oc1ccccc1-c1nc(N=C2NCCCN2)oc1Cl [Compound I-142] | 256 µg/mL
NC(N)=Nc1nc(-c2ccc3c(c2)COc2c-3ccc3c2C(=O)CCC3)cs1 [Compound I-119] | 256 µg/mL
NC(N)=Nc1nc(-c2cc(C(F)(F)F)c(O)c(C(F)(F)F)c2)co1 [Compound I-45] | 256 µg/mL
O=C(Nc1ccccc1)Nc1cccc(-c2nc(N=C3NCCCN3)sc2Br)c1 [Compound I-198] | 128 µg/mL
CCOC(=O)c1ccc(-c2c[nH]c(N=C(N)N)n2)cc1 [Compound I-25] | 256 µg/mL

Each compound was assayed on ATCC13883 strain (Klebsiella pneumoniae) in the same assay as above. Conditions: not given.
Format: cell-based
Text: as §2

SMILES | Antibacterial activity of the compound of Formula I, ATCC13883
Cc1ccccc1Oc1ccccc1-c1csc(N=C(N)N)n1 [Compound I-81] | 256 µg/mL
Cc1oc(N=C(N)N)nc1-c1cccc2ccc(Cl)cc12 [Compound I-63] | 256 µg/mL
COc1ccc(-c2csc(N=C(N)N)n2)cc1 [Compound I-6] | 256 µg/mL
Cc1ccccc1Oc1ccccc1-c1nc(N=C2NCCCN2)oc1Cl [Compound I-142] | 256 µg/mL
NC(N)=Nc1nc(-c2ccc3c(c2)COc2c-3ccc3c2C(=O)CCC3)cs1 [Compound I-119] | 256 µg/mL
NC(N)=Nc1nc(-c2cc(C(F)(F)F)c(O)c(C(F)(F)F)c2)co1 [Compound I-45] | 256 µg/mL
O=C(Nc1ccccc1)Nc1cccc(-c2nc(N=C3NCCCN3)sc2Br)c1 [Compound I-198] | 128 µg/mL
CCOC(=O)c1ccc(-c2c[nH]c(N=C(N)N)n2)cc1 [Compound I-25] | 256 µg/mL
